# Laboratory results taken from PubChem BioAssay (NCI).
#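 96-well plates; 48 h exposure; 5 concentrations. Endpoints by linear interpolation between flanking doses. Not reached: highest tested concentration assigned. GI50 = concentration required for 50% inhibition of growth. TGI: total growth inhibition.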
# Experiments:
# Assay in all cases: NCI anticancer screen, dose series, 48 h
# [1] = system: RXF 393 renal
# [2] = system: RPMI-8226 leukemia
# [3] = system: SR leukemia
# [4] = system: DU-145 prostate
# [5] = system: U251 CNS
# [6] = system: NCI-H226 lung
# [7] = system: MALME-3M melanoma
# [8] = system: HS 578T breast
# [9] = system: HL-60(TB) leukemia
# [10] = system: LOX IMVI melanoma
# [11] = system: HOP-92 NSCLC
# [12] = system: EKVX NSCLC
# [13] = system: IGROV1 ovarian
# [14] = system: NCI-H23 lung
# [15] = system: SK-MEL-5 melanoma
# [16] = system: BT-549 breast
# [17] = system: HT29 colon
# [18] = system: HCT-116 colon
# [19] = system: MCF7 breast
# [20] = system: UACC-257 melanoma
# [21] = system: OVCAR-3 ovarian
# [22] = system: SNB-19 CNS
# [23] = system: M14 melanoma
# [24] = system: SNB-75 CNS
# [25] = system: HCC-2998 colon
# [26] = system: KM12 colon
# [27] = system: SF-295 CNS
# [28] = system: A498 renal
# [29] = system: SK-OV-3 ovarian
# [30] = system: ACHN renal
# [31] = system: MOLT-4 leukemia
# [32] = system: COLO 205 colon
# [33] = system: UACC-62 melanoma
# [34] = system: OVCAR-5 ovarian
# [35] = system: A549 NSCLC
# [36] = system: K-562 leukemia
# [37] = system: 786-0 renal
# [38] = system: PC-3 prostate
# [39] = system: NCI-H460 lung
# [40] = system: SN12C renal
# [41] = system: CAKI-1 renal
# [42] = system: HCT-15 colon
# [43] = system: HOP-62 NSCLC
# [44] = system: OVCAR-8 ovarian
# [45] = system: NCI/ADR-RES ovarian
# [46] = system: TK-10 renal
# [47] = system: CCRF-CEM leukemia
# [48] = system: SF-539 CNS
# [49] = system: T-47D breast
# [50] = system: SK-MEL-28 melanoma
# [51] = system: SF-268 CNS
# [52] = system: SW-620 colon
# [53] = system: OVCAR-4 ovarian
# [54] = system: MDA-MB-435
# [55] = system: UO-31 renal
# [56] = system: SK-MEL-2 melanoma
# [57] = system: MDA-MB-231 breast
compound,measurement,setting,value
N#C/C(=N\Nc1ccc(F)cc1)C(=O)Nc1cc(-c2ccccc2)nn1-c1ccccc1,GI50,[1],2.24 µM
same,TGI,[1],7 µM
same,GI50,[2],0.75 µM
same,TGI,[2],4.48 µM
same,GI50,[3],2.27 µM
same,TGI,[3],8.74 µM
same,GI50,[4],3.62 µM
same,TGI,[4],20.8 µM
same,GI50,[5],3.04 µM
same,TGI,[5],13.2 µM
same,GI50,[6],2.84 µM
same,TGI,[6],13.7 µM
same,GI50,[7],1.85 µM
same,TGI,[7],13.4 µM
same,GI50,[8],3.39 µM
same,TGI,[8],53.8 µM
same,GI50,[9],1.89 µM
same,TGI,[9],5.43 µM
same,GI50,[10],4.54 µM
same,TGI,[10],17.7 µM
same,GI50,[11],0.427 µM
same,TGI,[11],3.85 µM
same,GI50,[12],2.84 µM
same,TGI,[12],15.3 µM
same,GI50,[13],3.69 µM
same,TGI,[13],18.3 µM
same,GI50,[14],1.75 µM
same,TGI,[14],10.6 µM
same,GI50,[15],0.821 µM
same,TGI,[15],3.16 µM
same,GI50,[16],2.11 µM
same,TGI,[16],11.2 µM
same,GI50,[17],3.07 µM
same,TGI,[17],11.6 µM
same,GI50,[18],2.16 µM
same,TGI,[18],11.5 µM
same,GI50,[19],2.11 µM
same,TGI,[19],11.4 µM
same,GI50,[20],1.54 µM
same,TGI,[20],8.69 µM
same,GI50,[21],2.4 µM
same,TGI,[21],15.6 µM
same,GI50,[22],2.99 µM
same,TGI,[22],13.4 µM
same,GI50,[23],2.84 µM
same,TGI,[23],> 100 µM
same,GI50,[24],1.93 µM
same,TGI,[24],8.45 µM
same,GI50,[25],3.61 µM
same,TGI,[25],19.3 µM
same,GI50,[26],2.75 µM
same,TGI,[26],33.4 µM
same,GI50,[27],1.66 µM
same,TGI,[27],5.75 µM
same,GI50,[28],0.141 µM
same,TGI,[28],2.86 µM
same,GI50,[29],1.61 µM
same,TGI,[29],6.39 µM
same,GI50,[30],2.55 µM
same,TGI,[30],10.5 µM
same,GI50,[31],2.16 µM
same,TGI,[31],9.92 µM
same,GI50,[32],1.82 µM
same,TGI,[32],3.6 µM
same,GI50,[33],0.853 µM
same,TGI,[33],17 µM
same,GI50,[34],3.52 µM
same,TGI,[34],17.2 µM
same,GI50,[35],2.45 µM
same,TGI,[35],15.6 µM
same,GI50,[36],1.45 µM
same,TGI,[36],12.8 µM
same,GI50,[37],3.41 µM
same,TGI,[37],14 µM
same,GI50,[38],1.77 µM
same,TGI,[38],8.7 µM
same,GI50,[39],2.02 µM
same,TGI,[39],10.2 µM
same,GI50,[40],1.83 µM
same,TGI,[40],8.45 µM
same,GI50,[41],1.56 µM
same,TGI,[41],8.72 µM
same,GI50,[42],2.34 µM
same,TGI,[42],45.4 µM
same,GI50,[43],2.69 µM
same,TGI,[43],11.2 µM
same,GI50,[44],2.61 µM
same,TGI,[44],63.8 µM
same,GI50,[45],2.85 µM
same,TGI,[45],12.1 µM
same,GI50,[46],3.43 µM
same,TGI,[46],16.2 µM
same,GI50,[47],1.21 µM
same,TGI,[47],9.31 µM
same,GI50,[48],3.26 µM
same,TGI,[48],12.8 µM
same,GI50,[49],1.63 µM
same,TGI,[49],> 100 µM
same,GI50,[50],3.35 µM
same,TGI,[50],77.2 µM
same,GI50,[51],2.37 µM
same,TGI,[51],25.9 µM
same,GI50,[52],3.16 µM
same,TGI,[52],20.4 µM
same,GI50,[53],2.39 µM
same,TGI,[53],21.8 µM
same,GI50,[54],2.55 µM
same,TGI,[54],> 100 µM
same,GI50,[55],2.5 µM
same,TGI,[55],13.4 µM
same,GI50,[56],1.22 µM
same,TGI,[56],5.01 µM
same,GI50,[57],1.99 µM
same,TGI,[57],5.6 µM
